Measured values reported in patent publication US11324832B2, “Tripartite modulators of endosomal G protein-coupled receptors” (Endosome Therapeutics, Inc., priority 2015, dated 2022).
Where a SMILES comes first, the peptide text is derived from it. [ ]: non-standard residue; d: D form. The star is where a group is joined. X1 = CC(C)CCC[C@@H](C)[C@H]1CC[C@H]2[C@@H]3CC[C@H]4C[C@@H](O*)CC[C@]4(C)[C@H]3CC[C@]12C; PEG4 = NCCOCCOCCOCCOCCC(=O)O; PEG3 = NCCOCCOCCOCCC(=O)O

Key:
[1] = system: CFA-induced mechanical hyperalgesia in mice; assay: CFA-induced mechanical hyperalgesia in mice; format: in vivo, mouse; details: for effect on CFA-induced sustained mechanical hyperalgesia: endocytic inhibitor i.t. 36 h after CFA
Source text: (§1) Investigators were unaware of test agents.

[2] = system: formalin-evoked nocifensive behavior in mice; assay: Formalin-evoked nocifensive behavior in mice; format: in vivo, mouse; details: for effect on formalin-evoked nocifensive behavior: i.t. 30 min before intraplantar formalin
Source text: as §1

[3] = system: capsaicin-evoked mechanical hyperalgesia in mice; assay: Capsaicin-evoked mechanical hyperalgesia and edema in mice
NK1R [4] = biological target: NK1R (Rattus norvegicus, UniProt P14600); assay: FRET biosensors of compartmentalized signaling (ERK, PKC, cAMP) in NK1R-expressing HEK293 cells; format: cell-based; parameters: Full length and truncated 6312 rat HA-NK1R have been described; expressed in transfected cells; host or cells: HEK293 (transient); details: for effect on SP activation of cytosolic ERK / effect on SP-induced plasma membrane cAMP / effect on plasma membrane PKC activity: endocytic inhibitor plus SP 1 nM; for effect on SP stimulation of cytosolic PKC / effect on SP stimulation of cytosolic cAMP / effect on SP stimulation of nuclear ERK: endocytic or signaling inhibitor plus SP 1 nM
Description: To study the link between NK1R trafficking and signaling, the NK1R and Förster Resonance Energy Transfer (FRET) biosensors targeted to detect activated ERK in the cytosol (CytoEKAR) or nucleus (NucEKAR, FIG. 2A), activated PKC at the plasma membrane (pmCKAR) or in the cytosol (CytoCKAR, FIG. 2C), and cAMP at the plasma membrane (pmEpac2) or in the cytosol (CytoEpac2, FIG. 2E) were expressed in HEK293 cells.
HEK293 cells were transfected with 55 ng/well rat NK1R with N-terminal HA. 11 epitope tag (HA-NK1R) or CLR plus RAMP1 and 40 ng/well FRET biosensors. FRET was assessed 48 h after transfection, following serum restriction (0.5% FBS overnight). For experiments using clathrin or dynamin siRNA, cells were transfected with 55 ng/well rat HA-NK1R, 40 ng/well FRET biosensor and 25 nM/well scrambled, clathrin or dynamin ON-TARGETplus SMARTpool siRNA (GE Dharmacon). FRET was assessed 72 h after transfection, following serum restriction (0.5% FBS overnight). Cells were equilibrated in HBSS at 37° C. and FRET was analyzed using a GE Healthcare INCell 2000 Analyzer. For GFP/RFP emission ratio analysis, cells were sequentially excited using a FITC filter (490/20) with emission measured using dsRed (605/52) and FITC (525/36) filters, and a polychroic optimized for the FITC/dsRed filter pair (Quad4). For CFP/YFP emission ratio analysis, cells were sequentially excited using a CFP filter (430/24) with emission measured using YFP (535/30) and CFP (470/24) filters, and a polychroic optimized for the CFP/YFP filter pair (Quad3). Cells were imaged every 1 min, allowing image capture of 14 wells per minute. Baseline emission ratio images were captured for 4 min. […] Cells were then stimulated with the positive control (200 nM phorbol 12,13-dibutyrate for ERK; 200 nM phorbol 12,13-dibutyrate with phosphatase inhibitor cocktail for PKC; 10 μM forskolin, 100 μM 3-isobutyl-1-methylxanthine, 100 nM PGE1 for cAMP) for 10 min to generate a maximal increase, and positive emission ratio images were captured for 4 min. Data were analyzed as described and expressed as emission ratios relative to baseline for each cell (F/F0). Cells with >10% change in F/F0 after stimulation with positive controls were selected for analysis.

NK1R [5] = assay: Alexa568-SP trafficking in HEK-NK1R cells; format: cell-based, rat; details: 30 min at 37° C.
NK1R [6] = assay: NK1R endocytosis in rat spinal neurons in vivo; details: lamina I neurons; i.t. 50 μM 30 min before intraplantar capsaicin; 10 min after capsaicin
Description: The spinal cord was collected 10 min later for localization of the NK1R. In controls (intrathecal, intraplantar vehicle), NK1R-IR was mostly at the plasma membrane of the soma and neurites of lamina I neurons (80.7±1.6% of total NK1R-IR within […] of the soma plasma membrane).
After 10 min, rats were transcardially perfused with PBS and then 4% PFA. The spinal cord was removed, immersion fixed in PFA (2 h, 4° C.), and cryoprotected (30% sucrose, PBS, 24 h, 4° C.). The spinal cord (T12 to L4) was embedded in OCT and […] serial coronal sections were cut into 48-well plates containing PBS. Free-floating sections were blocked in PBS containing 10% normal horse serum (1 h, RT). Sections were incubated with mouse anti-NeuN (1:20,000; AbCam) and either rabbit anti-NK1R (1:5,000, #94168) or rabbit anti-pERK (1:200; Cell Signaling Technology) in PBS containing 3% normal horse serum (48 h, 4° C.). Sections were washed (4×20 min in PBS) and incubated with donkey anti-rabbit Alexa488 (1:8,000) and donkey anti-mouse Alexa568 (1:2,000 (Life Technologies) (1 h, RT). Sections were washed, incubated with DAPI (10 μg/ml, 5 min), and mounted in Vectashield (Vector Laboratories).
Tissues and cells were observed using a Leica SP8 confocal microscope using HCX PL APO 40× (NA 1.30) and HCX PL APO 63× (NA 1.40) oil objectives. Z stacks were collected of NKiR-positive neurons in lamina I of the dorsal horn. Video projections of Z stacks were made using Imaris Software (Bitplane). NK1R endocytosis and pERK expression were quantified using ImageJ. To quantify NK1R internalization in lamina I neurons, the border of the cytoplasm of the neuronal soma was defined by NeuN fluorescence, and NK1R fluorescence within 5 pixels (0.5 μm) of the border was defined as plasma membrane-associated receptor. The ratio of plasma membrane to cytosolic NK1R-IR fluorescence was determined in >6 lamina I neurons per condition. To quantify ERK activation, the ratio of the number of pERK-IR neurons to total Neu-N-positive neurons in lamina I was determined in >6 fields (×40 objective) per condition.

[7] = system: SP-IR and CGRP-IR release; assay: Neuropeptide release from mouse dorsal spinal cord; details: 30 μM; capsaicin 0.3 μM, 10 min
Description: Slices (0.4 mm) of mouse dorsal spinal cord (combined cervical, thoracic, lumbar-sacral segments) were superfused (0.4 ml·min^−1) with Krebs' solution (mM: NaCl 119, NaHCO3 25, KH2PO4 1.2, MgSO4 1.5, CaCl2 2.5, KCl 4.7, D-glucose 11 mM; […], 37° C.) containing 0.1% BSA, 1 μM phosphoramidon and 1 μM captopril. […] Tissues were then superfused with capsaicin (0.3 μM, 10 min) in the presence of inhibitors or controls. Superfusate (10 min collections, 4 ml) was collected before, during and after capsaicin stimulation, and analyzed for SP-IR and CGRP-IR (Bertin Pharma). […] Detection limits of the assays were 2 pg·ml^−1 for SP-IR and 5 pg·ml^−1 for CGRP-IR. Results are expressed as fmol·g^−1·20 min^−1.

[8] = i.t. 36 h after intraplantar CFA
[9] = i.t. 3 h before intraplantar capsaicin
[10] = preincubated 30 min, then immediately challenged with SP
[11] = i.t. 30 min before intraplantar capsaicin

Sequence of NK1R (Rattus norvegicus, UniProt P14600) (P14600 whole entry, the tested form may be a part): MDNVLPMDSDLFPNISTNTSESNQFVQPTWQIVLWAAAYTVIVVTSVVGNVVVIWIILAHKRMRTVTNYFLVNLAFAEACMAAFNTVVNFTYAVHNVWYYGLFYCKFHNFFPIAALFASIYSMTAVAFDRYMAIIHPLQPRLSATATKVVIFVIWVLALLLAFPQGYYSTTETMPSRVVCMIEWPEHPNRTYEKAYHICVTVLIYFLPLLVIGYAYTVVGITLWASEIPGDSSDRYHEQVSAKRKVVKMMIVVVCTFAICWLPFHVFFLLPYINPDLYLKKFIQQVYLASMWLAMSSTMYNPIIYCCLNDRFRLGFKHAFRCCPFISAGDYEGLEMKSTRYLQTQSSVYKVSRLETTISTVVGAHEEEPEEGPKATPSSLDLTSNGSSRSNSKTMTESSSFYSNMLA

effect on plasma membrane PKC activity (NK1R [4]) | effect on SP stimulation of cytosolic PKC (NK1R [4]) | effect on SP stimulation of cytosolic cAMP (NK1R [4]) | effect on SP stimulation of nuclear ERK (NK1R [4]) | SMILES | effect on CFA-induced sustained mechanical hyperalgesia [1] | effect on Alexa568-SP redistribution to endosomes (NK1R [5]) | effect on formalin-evoked nocifensive behavior [2] | effect on capsaicin-evoked edema (left paw thickness) [3, 11] | effect on capsaicin-evoked mechanical hyperalgesia (von Frey, left paw) [3, 11] | effect on SP activation of cytosolic ERK (NK1R [4]) | effect on SP-induced plasma membrane cAMP (NK1R [4]) | NK1R-IR at plasma membrane (% membrane) (NK1R [6]) | effect on basal or capsaicin-stimulated release of SP-IR and CGRP-IR [7] | other results
 |  |  |  | CC(=O)N[C@@H](CC(=O)O[C@H]1CC[C@@]2(C)[C@@H](CC[C@@H]3[C@@H]2CC[C@]2(C)[C@@H]([C@H](C)CCCC(C)C)CC[C@@H]32)C1)C(=O)NCCOCCOCCOCCOCCC(=O)NCCOCCOCCOCCC(=O)NCCOCCOCCOCCOCCC(=O)N[C@H](CCCNC(=N)N)C(=O)N1CCC[C@H]1C(=O)N[C@@H](CCCCN)C(=O)N1CCC[C@H]1C(=O)N[C@@H](CCC(N)=O)C(=O)N[C@@H](CCC(N)=O)C(=O)N[C@H](Cc1c[nH]c2ccccc12)C(=O)N[C@@H](Cc1ccccc1)C(=O)N[C@H](Cc1c[nH]c2ccccc12)C(=O)N[C@@H](CC(C)C)C(=O)N[C@@H](CC(C)C)C(N)=O [Compound 1] (Ac-D(X1)[PEG4][PEG3][PEG4][dR]PKPQQ[dW]F[dW]LL-NH2) |  |  |  |  |  |  |  |  |  | duration of analgesia [1, 8]: > 6 h; time after which analgesic [1, 8]: 4 h; effect on formalin-evoked nocifensive behavior (both phases) ([2]; i.t. 3 h before intraplantar formalin): markedly inhibited both phases of nocifensive behavior; delay of analgesia ([3]; i.t. 30 min after capsaicin): 3 h; duration of analgesia ([3]; i.t. 30 min after capsaicin): > 6 h; duration of inhibition of capsaicin-evoked hyperalgesia [3, 9]: > 120 min; effect on capsaicin-evoked mechanical hyperalgesia (von Frey, left paw) [3, 9]: markedly inhibited capsaicin-evoked hyperalgesia; antagonism of SP activation of cytosolic ERK, pre-incubation (NK1R [4]; [10]): blocked activation of nuclear and cytosolic ERK; antagonism of SP activation of nuclear ERK, pre-incubation (NK1R [4]; [10]): blocked activation of nuclear and cytosolic ERK; antagonism of SP activation of nuclear ERK, pulse incubation (NK1R [4]; pulse incubated 30 min, washed, SP 4 h later): alone inhibited nuclear ERK
amplified plasma membrane PKC activity | abolished | abolished | abolished | O=C(N/N=C/c1cc(O)c(O)cc1O)c1cc2ccccc2cc1O [Dy4] | partially reversed | caused retention of Alexa568-SP in vesicles close to the plasma membrane | inhibited both phases of nocifensive behavior | unaffected | inhibited hyperalgesia | did not suppress SP activation of cytosolic ERK or plasma membrane cAMP, but caused both responses to become sustained | did not suppress SP activation of cytosolic ERK or plasma membrane cAMP, but caused both responses to become sustained | 59.6±0.2% | did not affect | 
amplified plasma membrane PKC activity | abolished | abolished | abolished | O=C1NC(=NS(=O)(=O)c2cccc3ccccc23)S/C1=C\c1ccc(Br)cc1 [PS2] | partially reversed | caused retention of Alexa568-SP in vesicles close to the plasma membrane | inhibited both phases of nocifensive behavior | unaffected | inhibited hyperalgesia | did not suppress SP activation of cytosolic ERK or plasma membrane cAMP, but caused both responses to become sustained | did not suppress SP activation of cytosolic ERK or plasma membrane cAMP, but caused both responses to become sustained | 69.0±1.1% | did not affect | effect on paw withdrawal responses of the uninjected right hind paw ([3]; intrathecal treatment): did not affect
